From patent publication US20240226041A1, “METHODS AND COMPOSITIONS FOR TREATMENT OF NEUROPATHIC PAIN USING STAT3 INHIBITORS” (priority 2021, published 2024)

Key:
[1] = biological target: T1, STAT3βtr (Homo sapiens, UniProt P40763); assay: STAT3 alkylation study, targeted LC-MS/MS (MRM, QTrap 5500) of tryptic digests; format: biochemical; conditions: for number of STAT3βtr peptides alkylated: natively folded STAT3βtr, conditions optimal for alkylation, LC-MS/MS of tryptic digest
T1 construct: STAT3 (127-722) cDNA was cloned into a pET15b vector; made in house; host or cells: E. coli BL21 (DE), pET15b
Description: To examine if this was a possibility, recombinant STAT3 was generated post-translationally unmodified in bacteria using a cDNA construct in which the domain containing the N-terminal oligomerization domain was deleted (STAT3βtr); this domain is not necessary for native folding of the core domains of STAT3 (CCD, DBD, linker domain, and SH2 domain) and its removal markedly improves recombinant STAT3 protein solubility. STAT3βtr contains 11 Cys residues. To determine how many of these Cys residues are available to be alkylated when soluble protein is natively folded, we incubated STAT3βtr with two protein alkylating agents, iodoacetamide and N-ethylmaleimide (NEM) under conditions optimal for alkylation (FIG. 11A-11B). […] The identity of the peptides were confirmed by performing full MS/MS spectra on the detected transitions. […] Five of the peptides contained a single alkylated Cys, while one of the peptides contained two alkylated Cys residues.
Expression and purification of recombinant STAT3. STAT3 (127-722) cDNA was cloned into a pET15b vector and transformed in BL21 (DE) (Life Technologies, Inc. Woburn, MA) Expression of the recombinant protein was inducing by 0.5 mM IPTG, at 20° C. for 5 hr. The recombinant STAT3 protein was purified by ammonium sulfate precipitation followed by an ion exchange step with HiTrap Q columns (GE Healthcare Bio-Sciences, Uppsala Sweden) and size exclusion chromatography to achieve purity of over 98%.
(§1) STAT3 alkylation studies. Purified recombinant core fragment of STAT3β protein in ammonium bicarbonate buffer (10 μM) was mixed with each compound at a final concentration of 100 μM. The protein mixture was then incubated at 37° C. overnight. Samples were reduced with 5 mM DTT at 37 °C for one hour and further alkylated with iodoacetamide (15 mM) for 30 minutes at RT in the dark, followed by digestion with trypsin gold in a dry incubator at 37° C. overnight. Formic acid was added the next day to 5% and each protein sample was diluted in 5 mM ammonium acetate containing 0.5% formic acid immediately prior to analysis by Targeted Mass Spectrometry Multiple Reaction Monitoring (MRM).
LC-MS/MS. A QTRAP 5500 Sciex hybrid quadrupole-linear ion trap system with a TurboIonSpray ion source in positive mode and equipped with a Sciex LC Exion liquid chromatography system was used to analyze tryptic digests of STAT3 protein samples treated with STAT3 inhibitors. Fractionation of the samples was done using a Waters Symmetry C18 column (100 Å, 3.5 μm, 4.6 mm×150 mm) and a 30 min linear gradient of acetonitrile with 0.1% formic acid at a flow rate of 300 uL/min. A transition list of cysteine-containing peptides with expected drug-cysteine adducts were generated in Skyline software and exported to the QTRAP mass spectrometer to developed acquisition methods. Resultant raw data files generated in the QTRAP were imported back into Skyline for analysis and additional processing.

[2] = biological target: T2, STAT3 (Homo sapiens, UniProt P40763); assay: STAT3 alkylation study, high resolution LC-MS/MS for unknown chemical adducts; format: biochemical; conditions: vs. STAT3 incubated with DMSO
T2 construct: STAT3 (127-722) cDNA was cloned into a pET15b vector; made in house; host or cells: E. coli BL21 (DE), pET15b
Procedure: FIGS. 11A-11C show alkylation of STAT3βtr by iodoacetamide and NEM. […] The dotted line indicates the cutoff for a significant Z-score.
as §1, with “Formic acid was added the next day to 5% and each protein sample was diluted in 5 mM ammonium acetate containing 0.5% formic acid immediately prior to analysis by Targeted Mass Spectrometry Multiple Reaction Monitoring (MRM).” left out
High resolution LC/MS. An aliquot of the tryptic digests of STAT3 proteins treated with DMSO (control) and those treated with Stattic and TTI101 were analyzed by LC-MS/MS on an Ultimate 3000 RSLC-Nano chromatograph interfaced to an Orbitrap Fusion high-resolution mass spectrometer (Thermo Scientific, Waltham MA). All MS/MS data were analyzed using Sequest-HT (Thermo Scientific). […] To access for potential unknown modifications, the data was analyzed in MaxQuant using the dependent peptide search option (Tyanova, Temu & Cox, 2016). All peptides output list was analyzed by comparing Stattic, TTI101 and TTI101ox with DMSO treated samples as described in (Antinori, Michelot, Lescuyer, Müller & Acosta-Martin, 2019).

[3] = Glutathione reaction study (UV-HPLC stability with GSH); format: physicochemical
Procedure: The AUC of each compound measured at the times indicated by UV-HPLC and expressed as percent of the starting AUC of the peaks. Data are representative of four independently performed experiments.
Each reaction mixture was sampled at time 0 and every 5 minutes for 50 minutes; all samples were analyzed by HPLC. The amount of unreacted inhibitor was determined by measuring the area under the curve (AUC) and plotting this value as a percentage of the starting AUC as a function of time (FIG. 3). […] In contrast, there was no loss of TTI-101 in the presence of GSH.
Glutathione reaction studies. STAT3 inhibitors (10 ul of 10 mM stock in DMSO) were spiked into reaction buffer [50 mM HEPES pH7.5 containing 10 mM reduced glutathione (GSH)] the samples were mixed thoroughly and placed in an autosampler set at 20° C. The reactions were monitored by high performance liquid chromatography (HPLC) using an Exion LC Sciex unit equipped with a UV detector. The stationary phase used was a C18 Synergi™ 4 μm Fusion-RP 80 Å LC column (50×2 mm); the mobile phase was water (A) and acetonitrile (B). The elution process consisted of an isocratic step with 20% mobile phase B, followed by 80% B, for 2 minutes. The flow rate was maintained at 0.5 mL/min during the run. Measurements were conducted at intervals of 5 minutes for a period of 55 minutes total. The presence of the STAT3 inhibitors were quantified by calculating the area under the curves (AUCs) of the compound peaks at 260-295 nm.

[4] = system: DU-145 cells; assay: Seahorse XF Cell Mito Stress Test, oxygen consumption rate (OCR); format: cell-based, human
Procedure: FIGS. 1A-1C show the effects of STAT3 inhibitors on mitochondrial function. DU-145 cells were treated with the indicated STAT3 inhibitors at 30 μM for 2 Hrs.
DU-145 cells were treated with STAT3 inhibitors at 10-30 μM for 2 Hrs. Data are representative of 4 or more independent experiments.
ATP production, maximal respiration, proton leak, and spare respiratory capacity. […] Similarly.
Mitochondrial assays. DU-145 cells (2.5×10^4) were seeded per well in a XF24 plate and incubated at 37° C./5% CO2 in complete RPMI medium. After 12 Hrs complete medium was replaced with nutrient depleted four-day culture media: conditioned media (CM) and incubated for 4 Hrs. Cells were then treated for another 2 Hrs with STAT3 inhibitors prior to analysis using a Seahorse XF24 Analyzer. The Oxygen Consumption Rate (OCR) was measured in DMEM XF base medium containing 10 mM glucose and 2 mM glutamine and 1 mM pyruvate, before and after the sequential injection of oligomycin, FCCP and rotenone/antimycin A to final concentrations of 1 μM, 1 μM and 0.5 μM respectively. Basal and maximal respiration values were estimate by subtraction of OCR value after treatment of cells with rotenone and antimycin A (which reflects non-mitochondrial respiration) from OCR values in cells treated with oligomycin and FCCP respectively.

[5] = system: male C57BL/6 mice; assay: Cisplatin model of chemotherapy-induced peripheral neuropathy (CIPN), von Frey mechanical allodynia; format: in vivo, mouse; conditions: two cycles of 5 daily doses of 2.3 mg/kg followed by 5 days rest
Procedure: Data were analyzed by two-way ANOVA repeated measures. Time: P<0.001; Group: P<0.001; Interaction P<0.001. **P<0.01 Tukey multiple comparison test. Data are from a representative experiment out of two with similar results.
Male C57/B16 mice (n=4 per group) were treated with cisplatin (two rounds of 5 daily doses of 2.3 mg/kg i.p. followed by 5 days of rest). […] Data were analyzed by two-way ANOVA repeated measures. Time: P<0.001; Group: P<0.001; Interaction P<0.01. **P<0.01 Tukey multiple comparison test.
Peripheral neuropathy has been observed with several small-molecule STAT3 inhibitors in clinical-stage development (Bendell et al., 2014; Genini et al., 2017; Ogura et al., 2015). […] This model was selected because it was shown previously that it is mediated by mitochondrial damage in the peripheral nervous system (Krukowski et al., 2017; Maj, Ma, Krukowski, Kavelaars & Heijnen, 2017). […] (FIG. 12).
Pain measurements and chemotherapy-induced peripheral neuropathy (CIPN).

[6] = system: DRG transcriptome; assay: RNA-seq and IPA analysis of dorsal root ganglia of cisplatin-treated mice; format: in vivo, mouse; conditions: cisplatin vs. PBS
Description: Expression of 1,973 genes was changed in response to cisplatin when compared to the PBS mice (PBS vs. Cis; n=3 male mice per group). […] A cutoff of (−0.2<log 2 Fold Change <0.2) and p=0.1 was used for the analysis. […] Gray indicates effect cannot be predicted.
The mechanistic network of four regulators identified STAT3 as an intermediate regulator. […] For example, for the TP53 network, 14 regulators were part of the mechanistic network which together influence expression of 481 genes and out of these 481 genes, 64 target genes are controlled by STAT3.
RNA-seq and transcriptome analysis of dorsal root ganglion (DRG). […] Total RNA was isolated with the RNeasy MinElute Cleanup Kit (Qiagen, Hilden, Germany). Libraries were prepared with the Stranded mRNA-Seq kit (Kapa Biosystems, Wilmington, MA) following the manufacturer's guidelines. Stranded-mRNA seq was performed with a HiSeq4000 Sequencer (Illumina, San Diego, CA) with 76nt PE format by the RNA Sequencing Core at MD Anderson Cancer Center. Data analysis was performed as previously described (Chiu et al., 2018; Ma et al., 2019). Briefly, expression data of three samples per group were analyzed in R using bioconductor packages. STAR was used for alignment of paired-end reads to the mm10 version of the mouse reference genome; feature Counts was used to assign mapped sequence reads to genomic features, and DESeq2 was used to identify differentially expressed genes (padj<0.05). Quality check of raw and aligned reads was performed with FastQC and Qualimap. Next, we used Ingenuity Pathway Analysis (IPA; Qiagen Inc., https://www.qiagenbioinformatics.com/products/ingenuity-pathway-analysis/) for analysis of the canonical pathways implicated by cisplatin-induced transcriptome changes in DRG.

[7] = system: male C57BL/6 mice; conditions: Krukowski et al., 2017; cited from earlier work

T1 sequence (P40763 127-722 isoform P40763-3): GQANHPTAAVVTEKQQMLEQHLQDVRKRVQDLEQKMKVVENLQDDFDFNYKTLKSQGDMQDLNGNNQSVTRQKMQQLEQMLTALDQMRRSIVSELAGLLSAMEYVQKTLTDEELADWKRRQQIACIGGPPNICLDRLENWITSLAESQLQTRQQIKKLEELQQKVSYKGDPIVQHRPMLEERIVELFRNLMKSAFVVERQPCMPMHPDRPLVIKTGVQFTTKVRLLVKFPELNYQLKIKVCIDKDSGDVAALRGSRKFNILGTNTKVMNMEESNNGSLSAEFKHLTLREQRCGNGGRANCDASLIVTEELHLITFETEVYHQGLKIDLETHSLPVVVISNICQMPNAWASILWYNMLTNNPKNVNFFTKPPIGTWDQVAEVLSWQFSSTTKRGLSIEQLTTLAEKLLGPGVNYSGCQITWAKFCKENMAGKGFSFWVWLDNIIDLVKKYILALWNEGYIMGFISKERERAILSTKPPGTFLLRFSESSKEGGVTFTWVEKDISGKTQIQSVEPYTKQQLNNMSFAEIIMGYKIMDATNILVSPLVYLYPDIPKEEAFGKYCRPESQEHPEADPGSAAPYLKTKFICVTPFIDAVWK
T2 sequence (P40763 127-722 isoform P40763-3): as above

NC(=O)CI [iodoacetamide]
number of STAT3βtr peptides alkylated [1]: 6 peptides

O=[N+]([O-])c1ccc2c(c1)S(=O)(=O)C=C2 [Stattic]
adducts on Cys containing STAT3 peptides (alkylation), targeted LC-MS/MS ([1]; STAT3βtr 10 μM, compound 100 μM, 37° C. overnight): covalent modification of STAT3 | alkylated peptides, targeted and untargeted LC-MS/MS ([1]; STAT3βtr tryptic digests, Qtrap 5500 and Orbitrap, FIGS. 4A-4C (Stattic)): eight | chemical adducts / mass shifts of STAT3 peptides, untargeted high resolution LC-MS/MS [2]: adducts were detected | unreacted inhibitor level (AUC) as percent of baseline in the presence of GSH ([3]; 100 μM in 50 mM HEPES pH 7.5, 10 mM GSH, within 5 minutes): < 10% | inhibitor level in the absence of GSH ([3]; without GSH): remaining constant | OCR curves compared to DMSO control ([4]; 2 Hrs, 10 and 30 μM (3-fold and 10-fold TTI-101 IC50)): did not consistently alter the OCR curves

C[C@H]1COC2=C1C(=O)C(=O)c1c2ccc2c1CCCC2(C)C [cryptotanshinone]
reduction in ATP level production ([4]; 30 μM): 50%

N.N.[Cl][Pt][Cl] [cisplatin, reference compound]
induction of mechanical allodynia [5]: induces mechanical allodynia | VEGF signaling (IPA comparison analysis) [6]: predicted activation of VEGF signaling | genes down in DRG [6]: 675 genes | genes up in DRG [6]: 1,298 genes | genes with changed expression in DRG [6]: 1,973 genes | duration of induced mechanical allodynia [7]: at least 75 days

CCN1C(=O)C=CC1=O [NEM, N-ethylmaleimide]
number of STAT3βtr peptides alkylated [1]: 6 peptides
